Measured values taken from publication PMC8119466, “A screen of FDA-approved drugs identifies inhibitors of protein tyrosine phosphatase 4A3 (PTP4A3 or PRL-3)” (Scientific Reports, 2021).
Structures can show the parent of a compound that is named as a salt.

Tests used:
Format in all cases: biochemical
Settings in all cases: FDA-approved drug screen; compared to DMSO
[1] = biological target: T1, recombinant PRL-1 (Homo sapiens, UniProt Q93096); assay: In vitro phosphatase assay (DiFMUP hydrolysis), PRL-1; further: test concentration or dose not given here
T1 construct: 6xHis (N, cleaved yes); made in house; host or cells: E. coli One Shot BL21 Star
T1 sequence (Q93096 1-173): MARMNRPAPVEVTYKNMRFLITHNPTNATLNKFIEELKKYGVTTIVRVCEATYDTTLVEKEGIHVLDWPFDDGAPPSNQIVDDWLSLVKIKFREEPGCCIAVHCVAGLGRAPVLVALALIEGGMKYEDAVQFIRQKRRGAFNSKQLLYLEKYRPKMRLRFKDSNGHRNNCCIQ

[2] = biological target: T2, recombinant PRL-2 (Homo sapiens, UniProt Q12974); assay: In vitro phosphatase assay (DiFMUP hydrolysis), PRL-2;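 further: PRL-2 activity read as DiFMUP hydrolysis after 20 min at room temperature with drug, enzyme first pre-reduced at 4 °C for 20 min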
T2 construct: 6xHis (N, cleaved yes); made in house; host or cells: E. coli One Shot BL21 Star
T2 sequence (Q12974 1-167): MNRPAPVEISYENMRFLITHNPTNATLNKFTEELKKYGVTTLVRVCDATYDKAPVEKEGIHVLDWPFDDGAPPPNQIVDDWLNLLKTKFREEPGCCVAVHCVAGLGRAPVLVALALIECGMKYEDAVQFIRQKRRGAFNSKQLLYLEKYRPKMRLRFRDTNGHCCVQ

[3] = biological target: T3, recombinant PRL-3 (Homo sapiens, UniProt O75365); assay: In vitro phosphatase assay (DiFMUP hydrolysis), PRL-3; further: test concentration or dose not given here
T3 construct: 6xHis (N, cleaved yes); made in house; host or cells: E. coli One Shot BL21 Star
T3 sequence (O75365 whole entry): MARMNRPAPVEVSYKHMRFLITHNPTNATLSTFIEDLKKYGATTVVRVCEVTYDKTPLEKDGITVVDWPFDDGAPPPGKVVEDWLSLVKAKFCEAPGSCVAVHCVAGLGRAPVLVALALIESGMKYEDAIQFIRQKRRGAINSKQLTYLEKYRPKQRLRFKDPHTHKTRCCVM

Compound	% Phosphatase Activity (compared to DMSO) PRL-1 [1] [%]	% Phosphatase Activity (compared to DMSO) PRL-2 [2] [%]	% Phosphatase Activity (compared to DMSO) PRL-3 [3] [%]
C=CCc1cc(OC)c(O)c(C(=O)NCCO)c1 [Alibendol]	90	109	81
COc1cc(Nc2ncc3c(n2)-c2ccc(Cl)cc2C(c2c(F)cccc2OC)=NC3)ccc1C(=O)O [Alisertib (MLN8237)]	85	96	81
COCCCOc1cc(C[C@@H](C[C@H](N)[C@@H](O)C[C@H](C(=O)NCC(C)(C)C(N)=O)C(C)C)C(C)C)ccc1OC [Aliskiren Hemifumarate]	102	122	102
Oc1ncnc2[nH]ncc12 [Allopurinol]	104	97	77
C=CCNC(N)=S [Allylthiourea]	106	121	86
CN(C)CCc1c[nH]c2ccc(CS(=O)(=O)N3CCCC3)cc12.O=C(O)CC(O)C(=O)O [Almotriptan Malate]	97	114	68
Cn1c(=O)cc(N2CCC[C@@H](N)C2)n(Cc2ccccc2C#N)c1=O [Alogliptin]	112	123	96
CCOC(=O)[C@H]1O[C@@H]1C(=O)N[C@@H](CC(C)C)C(=O)NCCC(C)C [Aloxistatin]	87	78	86
CCCCC[C@H](O)/C=C/[C@H]1[C@H](O)CC(=O)[C@@H]1CCCCCCC(=O)O [Alprostadil]	117	113	98
C=CC[C@]1(O)CC[C@H]2[C@@H]3CCC4=CC(=O)CCC4=C3C=C[C@@]21C [Altrenogest]	192	178	156
CN(C)c1nc(N(C)C)nc(N(C)C)n1 [Altretamine]	89	89	71
Cc1c(-c2ccnn2C)cc(C(=O)NCc2ccc(S(C)(=O)=O)cn2)c(=O)n1-c1cccc(C(F)(F)F)c1 [Alvelestat (AZD9668)]	138	114	121
CCN(CCCc1ccccc1)CCCc1ccccc1 [Alverine Citrate]	97	107	95
NC12CC3CC(CC(C3)C1)C2 [Amantadine HCl]	117	127	88
COC(c1ccccc1)(c1ccccc1)[C@H](Oc1nc(C)cc(C)n1)C(=O)O [Ambrisentan]	94	99	78
Cl.Nc1c(Br)cc(Br)cc1CN[C@H]1CC[C@H](O)CC1 [Ambroxol HCl]	105	117	98
CC(NC(C)(C)C)C(=O)c1cccc(Cl)c1.Cl (stereo not drawn) [Amfebutamone HCl]	102	110	77
Nc1c(CC(=O)[O-])cccc1C(=O)c1ccccc1.O.[Na+] [Amfenac Sodium Monohydrate]	89	108	67
NCCCNCCSP(=O)(O)O [Amifostine]	110	108	114
NCC[C@H](O)C(=O)N[C@@H]1C[C@H](N)[C@@H](O[C@H]2O[C@H](CN)[C@@H](O)[C@H](O)[C@H]2O)[C@H](O)[C@H]1O[C@H]1O[C@H](CO)[C@@H](O)[C@H](N)[C@H]1O [Amikacin disulfate]	96	152	110
NCC[C@H](O)C(=O)N[C@@H]1C[C@H](N)[C@@H](O[C@H]2O[C@H](CN)[C@@H](O)[C@H](O)[C@H]2O)[C@H](O)[C@H]1O[C@H]1O[C@H](CO)[C@@H](O)[C@H](N)[C@H]1O [Amikacin hydrate]	91	95	107
